Data as given in ChEMBL document CHEMBL1135238, “Antibody-catalyzed cleavage of the D-Ala-D-Lac depsipeptide: an immunological approach to the problem of vancomycin resistance” (Bioorg Med Chem Lett, 2002).
Square brackets hold non-standard residues; d marks the D form. Peptide text beside a SMILES is read from it.

Tests used:
[1] = Ratio of Kcat to Km was determined
[2] = Ratio of Kcat to Kuncat was determined
[3] = inhibitory activity of compound using pentapeptide cell-wall peptidoglycan (PG) substrates
[4] = Kcat value was determined
[5] = Km value was determined

Row | SMILES | Ratio [1] | Ratio [2] | Ki [3] [mM] | k cat [4] [s⁻¹] | Km [5] [µM]
1 | CC(=O)NCCCC[C@H](NC(=O)CCNC(=O)CCCC(=O)ON1C(=O)CCC1=O)C(=O)N[C@H](C)P(=O)(O)O[C@H](C)C(=O)O | 0.921 | 530 | < 0.16 | 3.33e-05 | 2170
2 | CC(=O)NCCCC[C@H](NC(C)=O)C(=O)N[C@H](C)C(=O)N[C@H](C)C(=O)O (Ac-Lys(Ac)-[dA]-[dA]-OH) |  |  | 13 |  | 
